“Also recorded” adds a separate entry of the source. Read-outs that look alike come from different tables or passages of the source.
Tests used:
androgen receptor (AR) = androgen receptor (AR) (Homo sapiens, UniProt P10275)
ER [1] = biological target: T1, ER (Homo sapiens, UniProt P03372); assay: kinetic SMT (kSMT) of ER after compound addition; type: cell-based; parameters: expressed in transfected cells; conditions: for t½ of increase in fbound: 100 nM; for time course of the overall effect on fbound: up to four-hour window
T1 sequence (P03372 1-595): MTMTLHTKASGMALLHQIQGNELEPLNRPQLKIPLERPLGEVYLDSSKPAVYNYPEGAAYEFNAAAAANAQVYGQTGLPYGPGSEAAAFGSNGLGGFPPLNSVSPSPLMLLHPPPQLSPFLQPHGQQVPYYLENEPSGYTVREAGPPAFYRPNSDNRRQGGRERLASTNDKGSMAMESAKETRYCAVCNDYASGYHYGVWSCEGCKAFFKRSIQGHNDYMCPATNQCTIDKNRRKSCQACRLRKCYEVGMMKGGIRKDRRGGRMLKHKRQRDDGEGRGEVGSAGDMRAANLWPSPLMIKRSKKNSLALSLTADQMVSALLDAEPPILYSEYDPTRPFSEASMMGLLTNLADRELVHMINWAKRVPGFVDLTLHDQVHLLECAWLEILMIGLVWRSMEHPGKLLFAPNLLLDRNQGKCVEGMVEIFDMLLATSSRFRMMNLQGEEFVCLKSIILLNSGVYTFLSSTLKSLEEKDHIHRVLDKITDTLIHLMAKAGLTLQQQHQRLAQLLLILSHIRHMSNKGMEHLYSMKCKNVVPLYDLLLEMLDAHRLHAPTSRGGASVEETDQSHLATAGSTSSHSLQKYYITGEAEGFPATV

Estrogen Receptor (ER) = biological target: T2, Estrogen Receptor (ER) (Homo sapiens, UniProt P03372); assay: htSMT of HaloTag-ER in U2OS cells (fbound, Dfree; bioactive screen and dose titration); type: cell-based; conditions: for change in fbound of ER: follow-up experiments after the screen (FIG. 12B, 14A, 16), 100 nM in FIG. 14A
T2 construct: expressed in transfected cells
T2 sequence (P03372 1-595): T1 sequence (P03372 1-595)

ER [2] = biological target: T1, ER; assay: residence time imaging of ER (track length survival); type: cell-based; parameters: expressed in transfected cells; conditions: 100 nM HSP90 inhibition, FIG. 16E; normalized to DMSO
ER [3] = biological target: T1, ER; assay: western blot of ER after fulvestrant treatment; type: cell-based; parameters: host or cells: Halo-ER U2OS (transfected fusion), or MCF7 / T47d (endogenous ER); conditions: fulvestrant 24 hours prior to lysis; MCF7, T47d, U2OS Halo-ER; FIG. 20A
[4] = biological target: T3, glucocorticoid receptor (GR) (Homo sapiens, UniProt P04150); assay: htSMT of Halo-GR in U2OS cells; type: cell-based; conditions: 1 μM antagonist, singly or co-administered with the cognate agonist; FIG. 34D
T3 construct: Because U2OS cells express GR endogenously, HaloTag was inserted right before the stop codon of endogenous NR3C1; endogenous in cells; host or cells: U2OS, CRISPR/Cas9 knock-in at the endogenous NR3C1 locus
T3 sequence (P04150 1-777): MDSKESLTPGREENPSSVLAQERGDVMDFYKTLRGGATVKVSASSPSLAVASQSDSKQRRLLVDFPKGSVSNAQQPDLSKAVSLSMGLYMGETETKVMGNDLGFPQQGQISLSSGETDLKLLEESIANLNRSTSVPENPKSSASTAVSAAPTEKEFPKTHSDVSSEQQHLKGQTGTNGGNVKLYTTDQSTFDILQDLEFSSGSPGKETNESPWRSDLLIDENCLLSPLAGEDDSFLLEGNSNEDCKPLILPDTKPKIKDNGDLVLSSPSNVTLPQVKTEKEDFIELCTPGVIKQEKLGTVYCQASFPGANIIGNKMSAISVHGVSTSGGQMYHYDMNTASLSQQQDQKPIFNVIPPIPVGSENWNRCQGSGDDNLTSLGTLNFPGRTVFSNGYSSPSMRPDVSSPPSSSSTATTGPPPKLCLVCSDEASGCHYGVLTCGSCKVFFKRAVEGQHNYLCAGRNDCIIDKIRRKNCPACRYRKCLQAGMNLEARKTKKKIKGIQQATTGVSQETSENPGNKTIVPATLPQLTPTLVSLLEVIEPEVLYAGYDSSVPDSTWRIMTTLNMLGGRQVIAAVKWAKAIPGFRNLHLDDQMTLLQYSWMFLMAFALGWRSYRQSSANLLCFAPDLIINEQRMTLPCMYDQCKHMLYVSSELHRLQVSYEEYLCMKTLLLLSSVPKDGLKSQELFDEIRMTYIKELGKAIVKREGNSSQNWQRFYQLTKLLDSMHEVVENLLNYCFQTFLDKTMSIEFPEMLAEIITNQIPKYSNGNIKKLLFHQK
Description: Thermo Fisher) at 500 μg/mL, then clonally isolated. […] Between three and six clones were subsequently tested using SMT conditions for response to a control compound, and the most homogenous clones were subsequently expanded for further testing. Unless otherwise specified, all experiments are with a single, clonally isolated cell line. Because U2OS cells express GR endogenously, HaloTag was inserted right before the stop codon of endogenous NR3C1 via homology-directed repair using CRISPR/Cas9. The HaloTag knock-in was validated by imaging using HTL-JF646 staining and through DNA sequencing.
Where appropriate, compounds were serially diluted in an Echo Qualified 384-Well Low Dead Volume Source Microplate (0018544, Beckman Coulter) to generate dose-titration source material.

Chain of androgen receptor (AR) (P10275 whole entry): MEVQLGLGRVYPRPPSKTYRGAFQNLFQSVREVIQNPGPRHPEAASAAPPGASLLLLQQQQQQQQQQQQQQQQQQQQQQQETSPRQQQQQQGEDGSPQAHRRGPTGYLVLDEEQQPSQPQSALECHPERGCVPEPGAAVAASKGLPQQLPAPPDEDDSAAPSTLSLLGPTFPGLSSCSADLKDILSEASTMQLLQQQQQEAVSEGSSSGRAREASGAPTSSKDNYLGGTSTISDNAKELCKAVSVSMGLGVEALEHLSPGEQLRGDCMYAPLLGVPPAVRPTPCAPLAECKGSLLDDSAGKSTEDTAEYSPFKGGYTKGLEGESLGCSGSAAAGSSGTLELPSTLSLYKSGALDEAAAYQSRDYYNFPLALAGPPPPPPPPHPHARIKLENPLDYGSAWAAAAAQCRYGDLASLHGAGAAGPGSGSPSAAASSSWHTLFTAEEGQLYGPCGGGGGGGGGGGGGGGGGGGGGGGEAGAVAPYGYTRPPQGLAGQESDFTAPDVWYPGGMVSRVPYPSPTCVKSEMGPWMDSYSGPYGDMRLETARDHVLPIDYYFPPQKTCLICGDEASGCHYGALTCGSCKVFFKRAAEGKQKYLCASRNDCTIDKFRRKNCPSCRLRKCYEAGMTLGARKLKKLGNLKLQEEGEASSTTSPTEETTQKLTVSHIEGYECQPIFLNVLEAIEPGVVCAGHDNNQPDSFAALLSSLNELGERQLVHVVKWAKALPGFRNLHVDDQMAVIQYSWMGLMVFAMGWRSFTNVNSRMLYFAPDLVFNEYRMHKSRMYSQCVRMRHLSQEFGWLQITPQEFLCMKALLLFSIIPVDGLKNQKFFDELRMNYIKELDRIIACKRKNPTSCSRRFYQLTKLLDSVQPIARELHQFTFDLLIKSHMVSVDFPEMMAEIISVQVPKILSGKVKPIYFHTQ

CC(O)c1cc(C(=O)N[C@@H](C)Cn2ccc(-c3ccc(C#N)c(Cl)c3)n2)[nH]n1 (stereo partly drawn) [Darolutamide]
change in AR chromatin binding (fbound) (androgen receptor (AR)): decrease in chromatin binding

CC(C)c1cc(-c2n[nH]c(=O)n2-c2ccc3c(ccn3C)c2)c(O)cc1O [ganetespib]
t½ of increase in fbound (ER [1]): 19.3 min | time course of the overall effect on fbound (ER [1]): reached a plateau after an hour | change in fbound of ER (Estrogen Receptor (ER)): increase in fbound | decrease in the total number long binding events (ER [2]): four

C[C@]12CC[C@@H]3c4ccc(O)cc4C[C@@H](CCCCCCCCC[S+]([O-])CCCC(F)(F)C(F)(F)F)[C@H]3[C@@H]1CC[C@@H]2O (stereo partly drawn) [fulvestrant]
degradation of ER (ER [3]): leads to the degradation of ER | change in fbound of ER in bioactive screen (Estrogen Receptor (ER); 1 μM compound versus DMSO, 5,067 molecules, two replicates): increase in fbound; also recorded: significantly increased fbound

CC(C)C[C@H](NC(=O)[C@H](CCc1ccccc1)NC(=O)CN1CCOCC1)C(=O)N[C@@H](Cc1ccccc1)C(=O)N[C@@H](CC(C)C)C(=O)[C@@]1(C)CO1 [carfilzomib]
time course of the overall effect on fbound (ER [1]): slowly increasing over the four-hour measurement window

CN(C)c1ccc(C(c2ccc(N(C)C)cc2)c2cc([N+](=O)[O-])ccc2Cl)cc1 [AL082D06]
change in GR chromatin binding (fbound) [4]: decrease in chromatin binding

CC(C)C[C@H](NC(=O)[C@H](Cc1ccccc1)NC(=O)c1cnccn1)B(O)O [bortezomib]
time course of the overall effect on fbound (ER [1]): slowly increasing over the four-hour measurement window

COc1cccc(-c2cc(F)ccc2[C@H]2Cc3nc(N)nc(C)c3C(=O)N2)n1 [HSP990]
t½ of increase in fbound (ER [1]): 17.5 min | time course of the overall effect on fbound (ER [1]): reached a plateau after an hour | change in fbound of ER (Estrogen Receptor (ER)): increase in fbound

4-hydroxytamoxifen
change in fbound of ER in bioactive screen (Estrogen Receptor (ER)): significantly increased fbound | maximal increase in ER fbound (Estrogen Receptor (ER)): lower maximal increases in fbound

Source: patent US20250314640A1, “SYSTEMS AND METHODS FOR HIGH THROUGHPUT SINGLE MOLECULE TRACKING IN LIVING CELLS” (EIKON THERAPEUTICS, INC., priority 2022, published 2025)
